Measurements reported in ChEMBL document CHEMBL3045250 (Med Chem Res, 2005).

Key:
[1] = target: T1, 5-hydroxytryptamine receptor 6 (Homo sapiens, UniProt P50406); assay: Displacement of [3H]LSD from Homo sapiens (human) 5-HT6 receptor expressed in Homo sapiens (human) HEK293 cells; type: cell-based
[2] = target: T1, 5-hydroxytryptamine receptor 6; assay: Binding affinity to 5-HT6 receptor (unknown origin)

T1 sequence (P50406 whole entry): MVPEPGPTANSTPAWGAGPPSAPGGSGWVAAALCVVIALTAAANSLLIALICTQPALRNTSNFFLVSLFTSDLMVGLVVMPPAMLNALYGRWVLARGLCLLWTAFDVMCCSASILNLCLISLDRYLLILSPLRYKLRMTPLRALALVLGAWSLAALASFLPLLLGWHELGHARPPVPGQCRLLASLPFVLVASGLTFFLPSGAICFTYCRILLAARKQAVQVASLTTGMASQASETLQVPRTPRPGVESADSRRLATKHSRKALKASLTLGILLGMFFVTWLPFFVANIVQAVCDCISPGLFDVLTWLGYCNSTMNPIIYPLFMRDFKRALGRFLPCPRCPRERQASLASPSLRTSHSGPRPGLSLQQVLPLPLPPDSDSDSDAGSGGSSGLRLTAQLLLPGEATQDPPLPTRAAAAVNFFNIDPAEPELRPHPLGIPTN

Q: `CN(C)CCc1c[nH]c2ccncc12` was tested. Which Ki [1] did it give?
A: 100 nM

Q: Which Ki [1] does the source give for `CN(C)CCc1cn(S(=O)(=O)c2ccccc2)c2ccncc12` here?
A: 84 nM

Q: With `Cc1cn(S(=O)(=O)c2ccc(N)cc2)c2ccncc12` as the molecule, how does the Ki [1] read?
A: 41 nM

Q: How did the Ki [1] turn out when `NCCc1c(-c2ccccc2)[nH]c2ccncc12` was run?
A: 2600 nM

Q: `CN(C)CCc1c(-c2ccccc2)[nH]c2ccncc12` was tested. Which Ki [1] did it give?
A: 270 nM

Q: How did the Ki [1] turn out when `CCc1[nH]c2ccncc2c1CCN` was run?
A: 4900 nM

Q: `CCc1[nH]c2ccncc2c1CCN(C)C` was tested. Which Ki [1] did it give?
A: 2900 nM

Q: Which Ki [2] does the source give for `CNc1cc(NS(=O)(=O)c2ccc(N)cc2)nc(NC)n1` here?
A: 58 nM

Q: Which Ki [1] does the source give for `NCCc1c[nH]c2ccncc12` [5-Azatryptamine] here?
A: 64 nM
